Data as given in PMC4286469 (Cancer research, 2014).
Each block holds one molecule with its values, some of them ahead of it. Where a SMILES comes first, the peptide text is derived from it. The star is where a group is joined. Cbz = O=C(OCc1ccccc1)*; CH2F = FC*

Key:
SK-Mel5 cells = type: cell-based, human
[1] = system: non-resectable melanoma tumors driven by BRAF^V600E; details: patients; ref [1]–[5]; cited from earlier work
p53 [2] = experiment: p53 and p53 target levels in cultured p53^WT melanoma cells; type: cell-based, human; details: for accumulation of p53 and its transcriptional targets: p53^WT cells (SK-Mel5 and Hs294T), (−)-Nutlin-3 10µM, MLN8237 1µM, 5 days
SK-Mel5 xenografts = experiment: Marker analysis of SK-Mel5 xenograft tumors; type: in vivo, BALB/C nu/Foxn1 athymic nude mice; details: for p53 induction/activation in tumors (Western blot): (−)-Nutlin-3 200mg/kg
B16F0 tumors [3] = experiment: B16F0 tumors in syngeneic immunocompetent C57Bl/6 mice; type: in vivo
cells with p53 knockout = experiment: Viability of cells with p53 knockout; type: cell-based; details: Fig. S2A
SK-Mel5 melanoma cells = experiment: Viability/cytotoxicity of SK-Mel5 melanoma cells; type: cell-based, human; details: for viability of melanoma cells under continuous exposure: p53^WT SK-Mel5, (−)-Nutlin-3 10µM, MLN8237 1µM, 7 days, Fig. 1D, E
[4] = Plasma and tumor pharmacokinetics in B16F0 melanoma-bearing C57Bl6 mice; details: 200 mg/kg oral
p53 [5] = experiment: p53 level and activity in p53^MUT SK-Mel28 cells; type: cell-based, human
[6] = system: patient-derived metastatic melanoma tumors; details: independent of BRAF and NRAS mutational status; ref [7]; cited from earlier work
in vivo = details: C57Bl6, mouse, po, 30 mg/kg
B16F0 tumors [7] = experiment: B16F0 tumors in immunodeficient NSG mice; type: in vivo; details: Fig. 4I
[8] = mouse, in vivo, po, 30 mg/kg

Molecule: COC(=O)C[C@H](NC(=O)[C@H](C)NC(=O)[C@@H](NC(=O)OCc1ccccc1)C(C)C)C(=O)CF [pan-caspase inhibitor, Z-VAD-FMK] (Cbz-Val-Ala-Asp(OMe)-CH2F)
- effect of pan-caspase inhibitor on cytotoxic response to p53 activation (SK-Mel5 cells): did not interfere

Molecule: CC(C)(C)c1nc(-c2cccc(NS(=O)(=O)c3c(F)cccc3F)c2F)c(-c2ccnc(N)n2)s1 [dabrafenib]
- median progression-free survival [1]: 6 months

- median (−)-Nutlin-3 AUC0–24hr, plasma ([4]; plasma): 292.7 µg·h/mL
- median (−)-Nutlin-3 AUC0–24hr, tumor tissue ([4]; tumor tissue): 455.6 µg·h/mL
Molecule: (−)-Nutlin-3
- cells showing strong p53 induction in vitro (p53 [2]; in vitro, Fig. S2B): 100%
- accumulation of p53 and its transcriptional targets (p53 [2]): induced accumulation of p53 and its transcriptional targets p21, PUMA, BAX and MDM2
- p53 induction/activation in tumors (Western blot) (SK-Mel5 xenografts; MLN8237 30mg/kg daily): modest
- tumor cells showing induction of apoptosis marker AIF (SK-Mel5 xenografts; Fig. 3C): no more than 15%
- tumor cells with elevated/strong p53 staining (SK-Mel5 xenografts; Fig. S3, untreated control tumors 3–6%): 11%
- p53 levels in tumors (B16F0 tumors [3]; IF staining, Fig. 4D): not strongly induced
- viability of cells with p53 knockout (cells with p53 knockout): did not affect viability
- cytotoxicity in senescent and non-senescent cells (SK-Mel5 melanoma cells; SK-Mel5, senescent (1 µM MLN8237 pre-treated) and non-senescent (vehicle pre-treated) cells, Fig. 1A, B): dose-dependent cytotoxicity
- viability of melanoma cells under continuous exposure (SK-Mel5 melanoma cells): killed p53^WT melanoma cells
- level and activity of p53 (p53 [5]): unaffected
- mitochondrial membrane potential (JC-1) (SK-Mel5 cells; (−)-Nutlin-3 10µM, MLN8237 1µM, 5 days): decrease in mitochondrial membrane potential
- cleavage of caspase 3 (SK-Mel5 cells; Fig. S2C): not detected
- Apoptosis Inducing Factor (AIF) activation and translocation (SK-Mel5 cells; SK-Mel5, IF staining): induced activation, mitochondrial release and nuclear translocation
- apoptosis (Annexin V-FITC and PI staining) (SK-Mel5 cells; p53^WT melanoma cells, 10µM, 5 days): induced apoptosis

- AUC(0-t) (in vivo): 42.7 µg·h/mL
- overall median MLN8237 AUC0–24hr, tumor tissue [8]: 37.4 µg·h/g
Molecule: COc1cc(Nc2ncc3c(n2)-c2ccc(Cl)cc2C(c2c(F)cccc2OC)=NC3)ccc1C(=O)O [MLN8237]
- accumulation of p53 and its transcriptional targets (p53 [2]): induced p53 accumulation
- p53 induction/activation in tumors (Western blot) (SK-Mel5 xenografts; MLN8237 30mg/kg daily): moderate induction of p53
- AURKA activity (auto-phosphorylation) in tumor lysates (SK-Mel5 xenografts; MLN8237 30mg/kg daily): inhibited AURKA activity
- tumor senescence (SA-β-Gal activity) and proliferation markers (SK-Mel5 xenografts; MLN8237 30mg/kg daily): inhibition of cancer cell proliferation and induction of senescence
- tumor growth (B16F0 tumors [3]; (−)-Nutlin-3 200mg/kg twice daily, MLN8237 30mg/kg once a day, oral gavage): partially inhibited tumor growth
- CCL5 levels in melanoma cells and fibroblasts sorted from tumors (qRT-PCR) (B16F0 tumors [3]; Fig. 5B): increased
- tumor necrosis (H&E) (B16F0 tumors [3]; immunocompetent mice, Fig. 4G): striking absence of necrosis
- patient-derived metastatic melanoma tumors with markedly slowed growth [6]: > 75%
- viability of melanoma cells under continuous exposure (SK-Mel5 melanoma cells): mostly cytostatic response
- clearance of necrotic areas in senescent tumors (B16F0 tumors [7]): abrogated
